From patent US7737166B2, “Antifungal bicyclic hetero ring compounds” (Daiichi Sankyo Company, Limited, priority 2005, dated 2010)
In brackets after ≈: the same amount, converted by molar mass.

Experiments:
C. glabrata ATCC48435 = experiment: Antifungal activity (GI80), growth inhibition in YPD20 medium by absorbance at 600 nm; type: cell-based; settings: 37° C., absorbance 600 nm; for IC80: Nakaseomyces glabratus, ATCC48435, minimum concentration for at least 80% cell growth inhibition, read-out: GI80 (μg/ml) C. glabrata ATCC48435
Protocol: (§1) The antifungal activity of the compounds of the invention was determined according to the method mentioned below.
(§2) An YPD20 medium (1% yeast extract, 2% peptone, 20% glucose) was used,
(§3) (2) Preparation of Cell Liquid for Inoculation:
(§4) Cells incubated overnight with Sabouraud dextrose agar at 30° C. were suspended in 0.1% Tween 80-added saline, and then added to a concentrated medium (1.33% yeast extract, 2.67% peptone, 13.33% glucose) so that the final cell concentration could be 5×10^3 cells/ml, thereby preparing a cell liquid for inoculation.
(§5) (3) Production of Chemical Dilution Plate:
(§6) A metered sample was dissolved in dimethyl sulfoxide, and a 2-fold dilution series was prepared using dimethyl sulfoxide. A chemical dilution of 2 μl each was added to a flat-bottom 96-well plate with 40% glucose (48 μl) put in each well, thereby producing a chemical dilution plate.
(§7) (4) Inoculation and Cultivation of Cell Liquid:
(§8) The cell liquid (150 μl) prepared in (2) was added to the chemical dilution plate produced in (3), followed by aerobic static cultivation at 37° C.
(§9) (5) Determination of Antifungal Activity (GI80 Value):
(§10) After cultivation for […], the plate was stirred, and its absorbance (600 nm) was measured. Based on the absorbance as the index, the minimum chemical concentration for at least 80% cell growth inhibition relative to the cell growth in the chemical-free well was computed as a GI80 value.

C. albicans ATCC90028 = experiment: as above; type: cell-based; settings: 37° C., absorbance 600 nm; for IC80: Candida albicans, ATCC90028, minimum concentration for at least 80% cell growth inhibition, read-out: GI80 (μg/ml) C. albicans ATCC90028
Protocol: as §1, §2, §3, §4, §5, §6, §7, §8, §9, §10

C. albicans ATCC MYA-573 = experiment: as above; type: cell-based; settings: minimum concentration for at least 80% cell growth inhibition, 37° C., absorbance 600 nm; for IC80: Candida albicans, read-out: GI80 (μg/ml) C. albicans ATCC MYA-573
Protocol: as §1, §2, §3, §4, §5, §6, §7, §8, §9, §10

[1] = minimum concentration for at least 80% cell growth inhibition

Row | SMILES | melting point | other results
1 | Cc1c(-c2ccccc2)c(N2CC[C@](C)(N)C2)c2oc(C(=O)N(C)C)nc2c1C#N [Example 160, 7-[(3S)-3-Amino-3-methylpyrrolidin-1-yl]-4-cyano-N,N,5-trimethyl-6-phenyl-1,3-benzoxazole-2-carboxamide] | 202 to 204 °C | 
2 | Cc1c(-c2ccccc2)c(N2CC[C@H](N(C)C)C2)c2oc(-c3cnn(C)c3)nc2c1C#N [Example 74, 7-[(3S)-3-(Dimethylamino)pyrrolidin-1-yl]-5-methyl-2-(1-methyl-1H-pyrazol-4-yl)-6-phenyl-1,3-benzoxazole-4-carbonitrile] | 214 to 222 °C | 
3 | CN[C@@]1(C)CCN(c2c(-c3ccccc3)c(C)c(C#N)c3nc(C(=O)N(C)C)oc23)C1 [Example 159, 4-Cyano-N,N,5-trimethyl-7-[(3S)-3-methyl-3-(methylamino)pyrrolidin-1-yl]-6-phenyl-1,3-benzoxazole-2-carboxamide] | 172 to 174 °C | IC80 (C. glabrata ATCC48435): < 0.016 µg/mL; IC80 (C. albicans ATCC90028): 0.063 µg/mL (≈ 0.151 µM); IC80 (C. albicans ATCC MYA-573): 0.063 µg/mL (≈ 0.151 µM)
4 | Cc1c(-c2ccccc2)c(N2CC[C@H](N(C)C)C2)c2oc(N3CC(C)(O)C3)nc2c1C#N [Example 99, 7-[(3S)-3-(Dimethylamino)-1-pyrrolidinyl]-2-(3-hydroxy-3-methylazetidin-1-yl)-5-methyl-6-phenyl-1,3-benzoxazole-4-carbonitrile] | 167 to 169 °C | 
5 | Cc1c(-c2cnccn2)c(N2CC[C@H](N(C)C)C2)c2oc(C3CC3)nc2c1C#N [Example 21, 2-Cyclopropyl-7-[(3S)-3-(dimethylamino)pyrrolidin-1-yl]-5-methyl-6-(pyrazin-2-yl)-1,3-benzoxazole-4-carbonitrile] | 157 to 159 °C | 
6 | CN[C@@]1(C)CCN(c2c(-c3cccc(F)c3)c(C)c(C#N)c3nc(C(=O)N(C)C)oc23)C1 [Example 157, 4-Cyano-6-(3-fluorophenyl)-N,N,5-trimethyl-7-[(3S)-3-methyl-3-(methylamino)pyrrolidin-1-yl]-1,3-benzoxazole-2-carboxamide] | 178 to 180 °C | 
7 | Cc1c(-c2ccccc2)c(N2CC[C@H](N(C)C)C2)c2oc(C(=O)N(C)CCc3ccccc3)nc2c1C#N [Example 46, 4-Cyano-7-[(3S)-3-(dimethylamino)pyrrolidin-1-yl]-N,5-dimethyl-6-phenyl-N-(2-phenylethyl)-1,3-benzoxazole-2-carboxamide] | 138 to 141 °C | 
8 | CNC(=O)c1nc2c(C#N)c(C)c(-c3ccccc3)c(N3CC[C@H](N(C)C)C3)c2o1 [Example 39, 4-Cyano-7-[(3S)-3-(dimethylamino)pyrrolidin-1-yl]-N,5-dimethyl-6-phenyl-1,3-benzoxazole-2-carboxamide] | 214 to 216 °C | 
9 | Cc1c(-c2ccccc2)c(N2CC[C@H](N(C)C)C2)c2oc(C(C)C)nc2c1C#N.Cl | 168 to 170 °C (dec.) | 
10 | Cc1c(-c2ccccc2)c(C2=CC(N(C)C)CC2)c2oc(C(C)(C)C)nc2c1C#N (stereo not drawn) [Example 3, 2-tert-Butyl-7-[3-(dimethylamino)cyclopent-1-en-1-yl]-5-methyl-6-phenyl-1,3-benzoxazole-4-carbonitrile] | 114 to 116 °C | 
11 | Cc1c(Br)c(N2CC[C@H](N(C)C)C2)c2oc(C3CC3)nc2c1C#N | 82 to 86 °C | 
12 | Cc1c(-c2ccccc2)c(N2CC[C@@H](N(C)C)C2)c2oc(C(=O)N(C)C)nc2c1C#N [Example 40-2, 4-Cyano-N,N,5-trimethyl-7-[(3R)-3-(dimethylamino)pyrrolidin-1-yl]-6-phenyl-1,3-benzoxazole-2-carboxamide] | 67 to 70 °C | 
13 | Cc1c(-c2ccccc2)c(N2CC[C@H](N(C)C)C2)c2oc(-c3ccccc3N)nc2c1C#N [Example 109, 2-(2-Aminophenyl)7-[(3S)-3-(dimethylamino)pyrrolidin-1-yl]-5-methyl-6-phenyl-1,3-benzoxazole-4-carbonitrile] | 259 to 263 °C | 
14 | Cc1c(-c2ccccc2)c(C2=CC(N(C)C)CC2)c2oc(C3CC3)nc2c1C#N (stereo not drawn) [Example 8, 2-Cyclopropyl-7-(3-dimethylaminocyclopent-1-en-1-yl)-5-methyl-6-phenyl-1,3-benzoxazole-4-carbonitrile] | 144 to 146 °C | 
15 | Cc1c(-c2ccccc2)c(N2CC[C@H](N(C)C)C2)c2oc(N3CC(O)C3)nc2c1C#N [Example 65, 7-[(3S)-3-(Dimethylamino)pyrrolidin-1-yl]-2-(3-hydroxyazetidin-1-yl)-5-methyl-6-phenyl-1,3-benzoxazole-4-carbonitrile] | 219 to 221 °C | 
16 | Cc1c(-c2ccccc2)c(N2CC[C@H](N(C)C)C2)c2oc(-c3ccccc3O)nc2c1C#N [Example 110, 7-[(3S)-3-(Dimethylamino)pyrrolidin-1-yl]-2-(2-hydroxyphenyl)-5-methyl-6-phenyl-1,3-benzoxazole-4-carbonitrile] | 159 to 162 °C | 
17 | Cc1cc2c(c(N3CC[C@H](N(C)C)C3)c1-c1ccccc1)OC(C#N)(C(=O)N1CCCCC1)N2 (stereo partly drawn) [Example 43, 7-[(3S)-3-(dimethylamino)pyrrolidin-1-yl]-5-methyl-6-phenyl-2-(piperidin-1-ylcarbonyl)-1,3-benzoxazole-2-carbonitrile] | 170 to 173 °C | 
18 | Cc1c(-c2ccco2)c(N2CC[C@H](N(C)C)C2)c2oc(C3CC3)nc2c1C#N [Example 18, 2-Cyclopropyl-7-[(3S)-3-(dimethylamino)pyrrolidin-1-yl]-6-(2-furyl)-5-methyl-1,3-benzoxazole-4-carbonitrile] | 158 to 159 °C | 
19 | CN[C@@H]1CCN(c2c(-c3ccccc3)c(C)c(C#N)c3nc(C(=O)N(C)C)oc23)C1 [Example 40-3, 4-Cyano-N,N,5-trimethyl-7-[(3R)-3-(methylamino)pyrrolidin-1-yl]-6-phenyl-1,3-benzoxazole-2-carboxamide] | 145 to 148 °C | 
20 | Cc1c(-c2cccc(CF)c2)c(N2CC[C@H](N(C)C)C2)c2oc(C3CC3)nc2c1C#N [Example 144-10, 2-Cyclopropyl-7-[(3S)-3-(dimethylamino)pyrrolidin-1-yl]-6-[3-(fluoromethyl)phenyl]-5-methyl-1,3-benzoxazole-4-carbonitrile] | 104 to 107 °C | 
21 | CC(=O)c1c(C)c(C#N)c2nc(C3CC3)oc2c1N1CC[C@H](N(C)C)C1 [Example 26, 6-Acetyl-2-cyclopropyl-7-[(3S)-3-(dimethylamino)pyrrolidin-1-yl]-5-methyl-1,3-benzoxazole-4-carbonitrile] | 142 °C | 
22 | Cc1c(-c2ccccn2)c(N2CC[C@H](N(C)C)C2)c2oc(C3CC3)nc2c1C#N [Example 20, 2-Cyclopropyl-7-[(3S)-3-(dimethylamino)pyrrolidin-1-yl]-5-methyl-6-(pyridin-2-yl)-1,3-benzoxazole-4-carbonitrile] | 150 to 151 °C | 
23 | Cc1c(-c2ccccc2)c(N2CC(N(C)C)C2)c2oc(C(C)(C)C)nc2c1C#N [Example 15, 2-Tert-butyl-5-methyl-7-(3-dimethylaminoazetidin-1-yl)-6-phenyl-1,3-benzoxazole-4-carbonitrile] | 211 to 212 °C | 
24 | CCN[C@H]1CCN(c2c(-c3ccccc3)c(C)c(C#N)c3nc(C4CC4)oc23)C1 [Example 138, 2-Cyclopropyl-7-[(3S)-3-(ethylamino)pyrrolidin-1-yl]-5-methyl-6-phenyl-1,3-benzoxazole-4-carbonitrile] | 209 to 211 °C | 
25 | Cc1c(-c2ccccc2)c(N2CC[C@H](N(C)C)C2)c2oc(N3CCOCC3)nc2c1C#N [Example 130, 7-[(3S)-3-(Dimethylamino)pyrrolidin-1-yl]-5-methyl-2-morpholin-4-yl-6-phenyl-1,3-benzoxazole-4-carbonitrile] | 215 to 217 °C | 
26 | Cc1c(-c2ccccc2)c(N2CC[C@H](N(C)C)C2)c2oc(N3CC(CC(=O)O)C3)nc2c1C#N | 125 to 128 °C | 
27 | Cc1c(-c2ccccc2)c(C2=CCNC2)c2oc(C3CC3)nc2c1C#N [Example 153, 2-Cyclopropyl-7-(2,5-dihydro-1H-pyrrol-3-yl)-5-methyl-6-phenyl-1,3-benzoxazole-4-carbonitrile] | 172 to 174 °C | 
28 | Cc1c(-c2ccccc2)c(N2CC[C@H](N(C)C)C2)c2oc(N(C)C)nc2c1C#N [Example 56, 2-(Dimethylamino)-7-[(3S)-3-(dimethylamino)pyrrolidin-1-yl]-5-methyl-6-phenyl-1,3-benzoxazole-4-carbonitrile] |  | IC80 (C. glabrata ATCC48435): 0.063 µg/mL (≈ 0.162 µM); IC80 (C. albicans ATCC90028): 0.125 µg/mL (≈ 0.321 µM); IC80 (C. albicans ATCC MYA-573): 0.5 µg/mL (≈ 1.28 µM)
29 | CCC(C)n1ncn(-c2ccc(N3CCN(c4ccc(OCC5COC(Cn6cncn6)(c6ccc(Cl)cc6Cl)O5)cc4)CC3)cc2)c1=O (stereo not drawn) [ITZ, Itraconazole, reference compound] |  | GI80 (μg/ml) C. glabrata ATCC48435 (C. glabrata ATCC48435; [1]): 0.25 µg/mL (≈ 0.354 µM); GI80 (μg/ml) C. albicans ATCC90028 (C. albicans ATCC90028; [1]): <0.016 µg/mL; GI80 (μg/ml) C. albicans ATCC MYA-573 (C. albicans ATCC MYA-573): 0.125 µg/mL (≈ 0.177 µM)
